Data from patent publication US20200062719A1, “Application of Imidazopyridine Derivatives in Regenerative Medicine” (University of Heidelberg, priority 2018, published 2020).

Columns and labels:
[1] = Metabolic analysis of O4I2 incubated with NCCIT cells (HPLC, LC/MS); assay type: in vitro ADME, human; conditions: 24 hours, O4I2 50 μM
Protocol: (§1) The inventors adopted Hantzsch thiazole synthesis (FIG. 20A) and produced a series of new O4I2-ester derivatives (FIG. 20B). Their activities were measured in three luciferase report cell lines, namely HEK-OCT4, driven by the activation of OCT4-promoter, and NCCIT-OCT4 and NCCIT-NANOG, whose intensities are controlled by endogenous OCT4 and NANOG respectively. […] Carboxylesterase 1 (CES1) is an enzyme majorly contributing to ester-to-acid conversion.
NCCIT cells were treated with O4I2 (50 μM) in RPMI 1640 medium containing 2% BSA/FBS. Medium and cells were collected. Cell pellet was solved in 0.1% Triton-x. Protein precipitated by adding MeOH (pH=2) in lysate supernatant on ice for 2 h. Metabolites were extracted from the combined supernatant with ethyl acetate. After removal of organic solvent, residue was dissolved in acetonitrile, frozen immediately in liquid N2 and stored in −80° C. until further analysis.
Samples obtained after purification were diluted to contain 20% MeOH. 100 μL of the sample was transferred to an HPLC vial and placed in the autosampler of an Agilent 1200 series HPLC machine. Sample (20 μL) was injected into the system and metabolites were separated on a C18 column (Kinetex 2.6 μm, C18, 100 Å, dimensions 100×2.1 mm, Phenomenex, Aschaffenburg, Germany). […]

OCT4-promoter = assay: Luciferase reporter assay in HEK-OCT4 cells; assay type: cell-based; conditions: HEK-OCT4, NCCIT-OCT4 and NCCIT-NANOG
Protocol: In an effort to find such chemical structures able to induce pluripotency, a high-throughput screening (HTS) was performed. The screen was based on cellular luciferase reporter assays under the control of the promoter activity of a pluripotency-associated transcription factor (Oct4) in HEK293 cells.
as §1

[2] = Expression of pluripotency genes in unmodified NCCIT cells; assay type: cell-based, human
From the text: Consistently, in unmodified NCCIT cells O4I4 forced the expression of OCT4 (3-fold increase as compared to 0.1% DMSO treatment) and NANOG (30-fold increase) as well as other pluripotency-related genes, like E-CADHERIN, SOX2, REX1 and STAT3, 0414-mediated enrichment of OCT4 and NANOG, as well as SOX2 and E-CADHERIN, was also detected by fluorescence-activated cell sorting. […] It was reported that removal of bFGF led to the loss of pluripotency-marker expression in hPSCs, including OCT4, SOX2, E-CADHERIN and NANOG, which however was rescued in the presence of O4I4 (FIG. 21A), indicating a positive function of O4I4 in maintaining the pluripotency-associated transcriptional circuitry in hPSC.
Quantitative reverse-transcription real-time-PCR was performed using a Light Cycler 96 (Roche, Germany) following the manufacturer's protocol. Briefly, total RNA was isolated from cells using TRIzol (Qiagen, Germany) or NucleoSpin®RNA Plus (Macherey-Nagel, Germany). The same amount of RNA was used to reverse-transcriptional synthesize cDNA by using random primers ProtoScript® First Strand cDNA Synthesis Kit (NEB, Germany). qPCR was performed using the SYBR Green PCR master mix (qPCRBIO SyGreen Mix Lo-Rox, Nippon Genetics, Germany) and the primer pairs indicated below (MWG, Eurofins, Germany). Actin was used as an endogenous control. […]

C. elegans [3] = assay: C. elegans survival assay under oxidative stress (juglone); assay type: in vivo
Protocol: Eggs were released by lysing gravid adults with bleaching for 10 min. Resuspended eggs in sterile M9 buffer and incubated at 20° C. for 16-18 h. After all the worms were synchronized at the same L1 larval stage, transferred them into the liquid S-media which contents E. coli OP50 (0D600=0.8-1.2). Then, synchronized worms were treated with DMSO, 50 μg/ml epigallocatechin gallate (EGCG) or O4I4 (5 μM, 10 μM, and 20 μM) for further experiments.
After 48 h treatment, around 60 wild-type C. elegans (N2) worms in each sample were transferred into a new liquid S-media which contains 80 μM of superoxide-generating compound juglone (5-hydroxy-1,4-naphthalenedione) for 24 h. If a worm has response via a gentle touch with platinum wire, it is considered as a live worm. Conversely, a dead worm was considered by no response. The function of the survival rate is shown below.

C. elegans [4] = assay: C. elegans lifespan assay; assay type: in vivo; conditions: 0.5 μM
Protocol: O4I4 (0.5 μM) were continuously added in medium until all the worms die. During the experiment period, every two days or three days, worms were counted either live or die by responding to a gentle touch with a platinum wire.

daf-16 = assay: Daf-16 localization assay in C. elegans TJ356; assay type: in vivo
Protocol: In this experiment, transgenic worms TJ356 (Daf-16::GFP) are employed to study our target substance affects the localization of daf-1 6. After 24 h treatment, worms were transferred to a glass slide and paralyzed with 10 mM sodium azide. BZ9000 fluorescence microscope was used to observe the localization of daf-1 6. In each sample, around 50 worms were scored for three localization patterns: cytoplasmic, intermediate and nuclear.

Oct4 [5] = assay: Immunoblotting of OCT4 protein in human primary fibroblasts; assay type: cell-based
Protocol: In human primary fibroblasts, O4I4 promoted the expression of pluripotency-associated genes, including OCT4, SOX2, NANOG, LIN28, E-CADHERIN, REX1 and SALL4. […] FACS analysis further confirmed the O4I4-mediated induction of OCT4 and E-CADHERIN.
iPSCs were lysed using urea-lysis buffer (1 mM EDTA, 0.5% Triton X-100, 5 mM NaF, 6 M Urea, 1 mM Na3VO4, 10 μg/mL Pepstatin, 100 μM PMSF and 3 μg/mL Aprotinin in PBS). Enhanced chemiluminescence (ECL) immunoblot analysis was performed. 40 μg of total protein was resolved on 12% SDS-PAGE gels and immunoblotted with antibodies. […] antibody was used as loading control. Primary antibodies were incubated at 1:1000 dilution in TBS (pH 7.5) with 0.1% Tween-20 and 5% BSA/milk with gentle agitation overnight at 4° C. Secondary antibodies (Dianova, Germany) were incubated in TBS (pH 7.5) with 5% Milk and 0.1% Tween-20 at a 1:10,000 dilution for 1 h at room temperature.

Nanog = assay: Luciferase reporter assay in NCCIT-Nanog cells; assay type: cell-based, human; conditions: 10 μM, 48 h
Protocol: It is known in the art that Nanog is a direct target of Oct4 and can be activated by other Oct4 inducing compounds. […] At higher concentrations of O4I3 (FIGS. 1B and 1C) less activity was observed. Moreover, the activity of zolpidem (N,N-Dimethyl-2-(6-methyl-2-p-tolylimidazo[1,2-a]pyridin-3-yl)acetamid) (100) containing a similar backbone to O4I3 was tested in both reporter cell lines. An approximate 2-fold induction at 10 μM was detected (FIG. 8 and FIG. 9).
Luciferase reporter assay was performed using Beatle Juice Kit (PJK, Germany) according to the manufacturer's instruction. NCCIT-Oct and NCCIT-Nanog reporter cells were plated into a 24-well plate (100,000 cells/well) for 24 h. Cells were treated with compounds as indicated and harvested with luciferase lysis buffer (25 mM Tris phosphate buffer pH=7.8, 4 mM EGTA, 1% Triton X-100, 10% glycerol and 2 mM fresh DTT, filtered through 0.45 μm sterile filter) at 37° C. for 15 min. The protein concentration was determined by Bradford assay (Sigma, Germany). 100 μL reaction mixture containing luciferin and ATP was added to 20 μL cell lysis in a white plate (Gibco, Germany), incubated for 5 min and measured by a luminometer plate-reader. The activity was determined as percent luminous intensity of treated cells over control cells from at least five-independent experiments.

hiPSCs = assay: iPSC single cell expansion, viability by MTT assay; assay type: cell-based, human; conditions: much higher concentration and lower efficacy than O4I3
Protocol: Since O4I3 induced sustainable expression of Oct4 and Nanog, the inventors questioned if it supports iPSC self-renewal in single cell expansion. Therefore, the viability of iPSCs, after replating Accutase®-dissociated single iPSCs, was tested in the presence or absence of O4I3. Rocki (Y-27632) was used for the first 24 h to increase iPSCs survival. A nearly 300% higher viability in cells treated with O4I3 (1 nM) was observed. Using 50 nM of O4I3 even 400% increase was observed (FIG. 2A). FACS analysis confirmed homologous expression of iPSCs markers, Tra-1-81 and Oct4, for at least 30 passages (FIG. 2B).
iPSC single cell expansion was performed according to a well-established protocol known in the art (Watanabe et al, Nat Biotechnol, 2007, 25(6), 681-6). Briefly, iPSCs were dissociated with Accutase® as single cell suspension and re-seeded in a Geltrex-coated 96-well plate in the presence of Rock inhibitor for the first 24 h in combination with/without O4I3. Cell viability was performed in MTT assay as disclosed elsewhere (Cheng et al, Mol Oncol. 2016 June; 10(6):806-24).

human fibroblasts = assay: Episome-based reprogramming of human fibroblasts, AP+ / iPSC-like colonies; assay type: cell-based; conditions: 1 μM, lower efficiency
Protocol: O4I3 was applied in commercially available episome-based reprogramming cocktail containing episomal vectors for overexpression of Oct4, Sox2, Klf4, Lin28 and L-Myc, as well as suppression of p53. In comparison to non-treated fibroblast cultures, 20 times more alkaline phosphatase (AP) positive colonies were detected in the presence of O4I3 at a concentration of 50 nM in two tested human primary fibroblasts (HF1 and HF2) (FIG. 13).
It is known in the art that senescence or other unknown factors can confer donor fibroblasts resistance to reprogramming. Therefore, O4I3 was tested for its ability to enable reprogramming of refractory fibroblasts. Two human fibroblasts were selected. HFF-LTR7-EGFP at passage >40 carrying EGFP driven by a LTR7 promoter, which was activated during reprogramming, and HF5, isolated from a patient sample, both of which were resistant to an episome-based reprogramming approach (FIG. 13).
Epi5® Episomal iPSC Reprogramming Kit (Life technologies) was used to reprogram human fibroblasts according to the manufacturer's protocol. Briefly, 5,000-50,000 cells were seeded in a 24-well plate for 24 h and then transfected with episomal vectors in N2 B27 medium. After 14 days, cells were re-suspended with 0.5 mM EDTA and re-plated in a 6-well plate in Essential®8 medium. Colonies were isolated after 3-4 weeks with the help of alkaline phosphatase (AP) live stain (Life technologies). Medium was refreshed daily.

methylated H3K4 = assay: In vitro H3K4 methylation assay (Epiquik histone demethylase H3K4 specific kit); assay type: biochemical; conditions: micromolar concentrations
Protocol: (§2) Epiquik histone demethylase (H3K4 specific) activity/inhibition assay kit (Epigentek, Biocat, Germany) was used to measure the protective effect of O4I3 and zolpidem on the methylation of H3K4. Their inhibitory effects on LSD1, KDM5s, and KDM4 were determined using Epigenase jarid demethylase activity/inhibition assay kit, Epigenase JMJD2 demethylase activity/inhibition assay kit and EpiQuik histone demethylase LSD1 activity/inhibition assay kit (Epigentek, Biocat, Germany). The total nuclear extraction was used according to manufacturer's instructions. For measuring KDM5A, KDM5B, KDM5C, and KDM5D activity, magnetic beads were used to immunoprecipitate the respective enzymes from 10^8 cells according to the manufacturer's instructions (Cell Signaling Technologies).

KDM5 = KDM5 demethylase inhibition, whole-cell nuclear extraction; assay type: biochemical; conditions: micromolar concentrations
From the text: (§3) HMT and HDM are two major classes of enzymes, contributing to the regulation of histone methylation. Lysine-specific demethylase 1 (LSD1) and histone lysine demethylase 5 (KDM5, also known as JARID1) majorly catalyze demethylation of H3K4. A few KDM5 chemical inhibitors have been reported to inhibit demethylation of H3K4, leading to an increase of global methylated H3K4 in various cell types. The inventors tested the inhibitory effect of O4I3 on LSD1 and KDM5. KDM4 (also known as JMJD2), the HDM of H3K9 and H3K36, was also included.
as §2

KDM4 = system: T1, KDM4; assay: KDM4 (JMJD2) demethylase inhibition, nuclear extraction; assay type: biochemical; conditions: micromolar concentrations
T1 construct: other: whole-cell nuclear extraction; other: micromolar concentrations
From the text: as §3, §2

Oct4 [6] = assay: Luciferase reporter assay in NCCIT-Oct4 cells; assay type: cell-based, human; conditions: 10 μM, 48 h

CCOC(=O)c1csc(Nc2ccc(Cl)cc2)n1 [O4I2]
metabolic conversion in cells [1]: occurrence of ester-to-acid conversion

Cc1cccc(Nc2nc(C(C)(C)C)cs2)c1C [O4I4]
activity in three luciferase reporter cell lines (OCT4-promoter): among the most active compounds | expression of NANOG, increase as compared to 0.1% DMSO treatment [2]: 30 fold | expression of OCT4, increase as compared to 0.1% DMSO treatment [2]: 3 fold | survival ratio under oxidative stress (C. elegans [3]): increased survival ratio | lifespan (C. elegans [4]): life extension | localization of daf-16 (daf-16): nucleic translocation | OCT4 protein (Oct4 [5]): dose-dependent increase

Cc1ccc(-c2nc3ccc(C)cn3c2CC(=O)N(C)C)cc1 [zolpidem, N,N-dimethyl-2-(6-methyl-2-p-tolylimidazo[1,2-a]pyridin-3-yl)acetamid, reference compound]
induction in NCCIT-Nanog reporter cells (Nanog): ~2 fold | maintenance of iPSCs (hiPSCs): sustained the maintenance of iPSCs | reprogramming of resistant fibroblasts (human fibroblasts): facilitated the reprogramming of resistant fibroblasts | protection of H3K4 methylation (methylated H3K4): protected H3K4 methylation | inhibition of KDM5 (KDM5): inhibited | inhibition of KDM4 (KDM4): inhibited | induction in NCCIT-Oct4 reporter cells (Oct4 [6]): ~2 fold
